Laboratory results taken from patent publication US10035800B2 (AbbVie Inc., priority 2013, dated 2018).
Like-named read-outs stand apart in the source and are kept apart here.

What was measured:
[1] = biological target: T1, BRD4 (BDII_E352-M457) (Homo sapiens, UniProt O60885); test: TR-FRET bromodomain binding assay, second bromodomain of BRD4; conditions: 30 nM probe
T1 construct: protocol; made in house
In short: (§1)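 His-tagged BRD4 bromodomain (8 nM) was incubated with Eu-anti-His antibody (1 nM) and an Alexa647-labelled BET-inhibitor probe (100 nM for BDI, 30 nM for BDII) in pH 6.0 phosphate buffer with 2% DMSO for 1 h at room temperature. TR-FRET ratio was read, IC50 fitted by 4-parameter logistic, then converted to Ki.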

[2] = test system: breast cancer cell line MX-1; test: MX-1 cell line proliferation assay; assay type: cell-based; conditions: MX-1 cells, 3-day proliferation assay, Cell Titer Glo, read-out: Cellular proliferation: EC50
In short: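 EC50 comes from sigmoidal fits of Cell Titer Glo luminescence relative to DMSO controls, with assay MSR 2.1. Ten-point 3-fold dilutions (top 3 or 1 μM final) were added to MX-1 breast cancer cells after overnight adhesion. Cells were at 5000/well and proliferation ran 3 days.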

[3] = biological target: T2, BRD4 (BDI_K57-E168) (Homo sapiens, UniProt O60885); test: TR-FRET bromodomain binding assay, first bromodomain of BRD4; conditions: 100 nM probe
T2 construct: BD1: amino acids K57-E168; made in house
In short: as §1

[4] = TR-FRET assay protocol G (compound 0.92 μM-15 pM)
[5] = TR-FRET assay protocol E (compound 9.19 μM-150 pM)

Compound | Ki [1, 4] | EC50 [2] | Ki [3, 4] | EC50 ([2]; Homo sapiens, MX1, 72 h) | Ki [1, 5] | Ki [3, 5]
CCCN1Cc2c[nH]c3c(=O)n(C)cc(c23)-c2cc(F)cc(F)c21 [Example 48, 5,7-difluoro-10-methyl-4-propyl-3,4-dihydro-1H-1,4,10-triazadibenzo[cd,f]azulen-11(10H)-one] | 0.855 nM | 4.41 nM | 1.12 nM |  |  | 
COC(=O)CCC1c2c[nH]c3c(=O)n(C)cc(c23)-c2cc(CS(C)(=O)=O)ccc2N1CC1CC1 (stereo not drawn) [Example 14, methyl 3-(4-(cyclopropylmethyl)-10-methyl-7-((methylsulfonyl)methyl)-11-oxo-3,4,10,11-tetrahydro-1H-1,4,10-triazadibenzo[cd,f]azulen-3-yl)propanoate] |  | 14.6 nM |  |  | 0.882 nM | 6.9 nM
Cc1cnc2c(c1)-c1cn(C)c(=O)c3[nH]cc(c13)CN2c1ccc(F)cc1 [Example 11, 4-(4-fluorophenyl)-7,10-dimethyl-3,4-dihydro-1H-1,4,5,10-tetraazadibenzo[cd,f]azulen-11(10H)-one] | 2.57 nM | 1.64 nM | 1.61 nM |  |  | 
CCCCN1Cc2c[nH]c3c(=O)n(C)cc(c23)-c2cc(F)cc(F)c21 [Example 47, 4-butyl-5,7-difluoro-10-methyl-3,4-dihydro-1H-1,4,10-triazadibenzo[cd,f]azulen-11(10H)-one] | 1.27 nM | 8.33 nM | 1.37 nM |  |  | 
Cn1cc2c3c(c[nH]c3c1=O)CN(C(=O)Oc1ccccc1)c1ccc(CS(C)(=O)=O)cc1-2 [Example 93, phenyl 10-methyl-7-((methylsulfonyl)methyl)-11-oxo-10,11-dihydro-1H-1,4,10-triazadibenzo[cd,f]azulene-4(3H)-carboxylate] | 1.63 nM | 2.59 nM | 2.84 nM |  |  | 
10-methyl-7-((methylsulfonyl)methyl)-4-(piperidin-4-ylmethyl)-3,4-dihydro-1H-1,4,10-triazadibenzo[cd,f]azulen-11(10H)-one [Example 37] | 2.4 nM | > 1000 nM | 3.36 nM |  |  | 
CCC(=O)N1Cc2c[nH]c3c(=O)n(C)cc(c23)-c2cc(CS(C)(=O)=O)ccc21 [Example 105, 10-methyl-7-((methylsulfonyl)methyl)-4-propionyl-3,4-dihydro-1H-1,4,10-triazadibenzo[cd,f]azulen-11(10H)-one] | 2.68 nM | 16.2 nM | 5.49 nM |  |  | 
Cn1cc2c3c(c[nH]c3c1=O)CN(CC1CCN(C(=O)OC(C)(C)C)CC1)c1ccc(CS(C)(=O)=O)cc1-2 [Example 28] |  | 13.7 nM |  |  | 1.17 nM | 1.1 nM
Cn1cc2c3c(c[nH]c3c1=O)CN(c1ccc(F)cc1)c1ncc(F)cc1-2 [Example 32, 7-fluoro-4-(4-fluorophenyl)-10-methyl-3,4-dihydro-1H-1,4,5,10-tetraazadibenzo[cd,f]azulen-11(10H)-one] | 1.14 nM | 1.38 nM | 1.01 nM |  |  | 
CCNC(=O)c1[nH]c2c(=O)n(C)cc3c2c1CN(c1ccc(Cl)cc1)c1ccccc1-3 [Example 127, 4-(4-chlorophenyl)-N-ethyl-10-methyl-11-oxo-3,4,10,11-tetrahydro-1H-1,4,10-triazadibenzo[cd,f]azulene-2-carboxamide] | 1.35 nM | 41.7 nM | 2.68 nM |  |  | 
Cn1cc2c3c(c[nH]c3c1=O)C(CCC(=O)NC1CCOCC1)N(c1ccc(F)cc1F)c1ccc(CS(C)(=O)=O)cc1-2 (stereo not drawn) [Example 121, 3-(4-(2,4-difluorophenyl)-10-methyl-7-((methylsulfonyl)methyl)-11-oxo-3,4,10,11-tetrahydro-1H-1,4,10-triazadibenzo[cd,f]azulen-3-yl)-N-(tetrahydro-2H-pyran-4-yl)propanamide] | 0.799 nM | > 1000 nM | 6.65 nM |  |  | 
COC(=O)CNC(=O)C1c2c[nH]c3c(=O)n(C)cc(c23)-c2cc(CS(C)(=O)=O)ccc2N1c1ccc(F)cc1F (stereo not drawn) [Example 155, methyl 2-(4-(2,4-difluorophenyl)-10-methyl-7-((methylsulfonyl)methyl)-11-oxo-3,4,10,11-tetrahydro-1H-1,4,10-triazadibenzo[cd,f]azulene-3-carboxamido)acetate] | 47.8 nM | 349 nM | 42.7 nM |  |  | 
10-methyl-4-(pyridin-2-yl)-7-(pyrrolidin-1-ylsulfonyl)-3,4-dihydro-1H-1,4,5,10-tetraazadibenzo[cd,f]azulen-11(10H)-one [Example 266] | 8.15 nM | 42.7 nM | 17.8 nM |  |  | 

Continued, in another order:

Ki [1, 4] | EC50 [2] | Ki [3, 4] | EC50 ([2]; Homo sapiens, MX1, 72 h) | Compound | Ki [1, 5] | Ki [3, 5]
0.86 nM | 6.54 nM | 1.2 nM |  | Cn1cc2c3c(c(C(N)=O)[nH]c3c1=O)CN(c1ccc(F)cc1F)c1ccc(CS(C)(=O)=O)cc1-2 [Example 209, 4-(2,4-difluorophenyl)-10-methyl-7-((methylsulfonyl)methyl)-11-oxo-3,4,10,11-tetrahydro-1H-1,4,10-triazadibenzo[cd,f]azulene-2-carboxamide] |  | 
1.94 nM | 256 nM | 22.5 nM |  | 1-((4-(2,4-difluorophenyl)-10-methyl-7-((methylsulfonyl)methyl)-11-oxo-3,4,10,11-tetrahydro-1H-1,4,10-triazadibenzo[cd,f]azulen-3-yl)methyl)-3-phenylurea [Example 138] |  | 
0.94 nM | 1.09 nM | 0.54 nM |  | Cn1cc2c3c(c[nH]c3c1=O)CN(c1ccc(Cl)cn1)c1ccc(CS(C)(=O)=O)cc1-2 [Example 245, 4-(5-chloropyridin-2-yl)-10-methyl-7-((methylsulfonyl)methyl)-3,4-dihydro-1H-1,4,10-triazadibenzo[cd,f]azulen-11(10H)-one] |  | 
12.4 nM | 31.7 nM | 1.85 nM |  | Cn1cc2c3c(c(CN4CCOCC4)[nH]c3c1=O)CN(c1ccc(Cl)cc1)c1ccc(CS(C)(=O)=O)cc1-2 [Example 193, 4-(4-chlorophenyl)-10-methyl-7-((methylsulfonyl)methyl)-2-(morpholinomethyl)-3,4-dihydro-1H-1,4,10-triazadibenzo[cd,f]azulen-11(10H)-one] |  | 
2.39 nM | 12.2 nM | 3.25 nM |  | COC(=O)NC1CCC(N2Cc3c[nH]c4c(=O)n(C)cc(c34)-c3cc(CS(C)(=O)=O)ccc32)CC1 (stereo not drawn) [Example 225, methyl ((trans)-4-(10-methyl-7-((methylsulfonyl)methyl)-11-oxo-10,11-dihydro-1H-1,4,10-triazadibenzo[cd,f]azulen-4(3H)-yl)cyclohexyl)carbamate] |  | 
2.05 nM | 34.2 nM | 8.18 nM |  | Cn1cc2c3c(c[nH]c3c1=O)C(CO)N(c1ccc(F)cc1F)c1ccc(CS(C)(=O)=O)cc1-2 (stereo not drawn) [Example 200, 4-(2,4-difluorophenyl)-3-(hydroxymethyl)-10-methyl-7-((methylsulfonyl)methyl)-3,4-dihydro-1H-1,4,10-triazadibenzo[cd,f]azulen-11(10H)-one] |  | 
0.64 nM |  | 0.64 nM | 1.36 nM | [2H]C1([2H])c2c[nH]c3c(=O)n(C)cc(c23)-c2cc(CS(C)(=O)=O)ccc2N1c1ccc(F)cc1F [Example 218, 4-(2,4-difluorophenyl)-(3,3-^2H2)-10-methyl-7-((methylsulfonyl)methyl)-3,4-dihydro-1H-1,4,10-triazadibenzo[cd,f]azulen-11(10H)-one] |  | 
5.87 nM | 454 nM | 65.7 nM |  | Cn1cc2c3c(c[nH]c3c1=O)[C@@H](c1ccccc1)N(c1ccc(F)cc1F)c1ccc(CS(C)(=O)=O)cc1-2 (single isomer, unassigned) [Example 215] |  | 
0.71 nM | 5.43 nM | 0.99 nM |  | CCNC(=O)c1[nH]c2c(=O)n(C)cc3c2c1CN(c1ccc(C#N)cc1)c1ccc(CS(C)(=O)=O)cc1-3 [Example 203, 4-(4-cyanophenyl)-N-ethyl-10-methyl-7-((methylsulfonyl)methyl)-11-oxo-3,4,10,11-tetrahydro-1H-1,4,10-triazadibenzo[cd,f]azulene-2-carboxamide] |  | 
30 nM | 72.5 nM | 41.7 nM |  | Cn1cc2c3c(c[nH]c3c1=O)C(C(=O)NCC1CC1)N(c1ccc(F)cc1F)c1ccc(CS(C)(=O)=O)cc1-2 (stereo not drawn) [Example 164, N-(cyclopropylmethyl)-4-(2,4-difluorophenyl)-10-methyl-7-((methylsulfonyl)methyl)-11-oxo-3,4,10,11-tetrahydro-1H-1,4,10-triazadibenzo[cd,f]azulene-3-carboxamide] |  | 
7.47 nM | 118 nM | 5.67 nM |  | COc1cc(N2Cc3c[nH]c4c(=O)n(C)cc(c34)-c3cc(CS(C)(=O)=O)ccc32)cc(OC)c1OC [Example 211, 10-methyl-7-((methylsulfonyl)methyl)-4-(3,4,5-trimethoxyphenyl)-3,4-dihydro-1H-1,4,10-triazadibenzo[cd,f]azulen-11(10H)-one] |  | 
5 nM | 155 nM | 2.39 nM |  | Cn1cc2c3c(c[nH]c3c1=O)CN(C1CCC(N)CC1)c1ccc(CS(C)(=O)=O)cc1-2 (mixture of isomers) [Example 212, 4-(4-aminocyclohexyl)-10-methyl-7-((methylsulfonyl)methyl)-3,4-dihydro-1H-1,4,10-triazadibenzo[cd,f]azulen-11(10H)-one] |  | 
